According to ChEMBL document CHEMBL4373664, “Importance of lipophilicity for potent anti-herpes simplex virus-1 activity of α-hydroxytropolones” (Medchemcomm, 2019):
The source made the active and inactive calls. The rule behind the calls is not given here.

What was measured:
Human alphaherpesvirus 1 [1] = test: Antiviral activity against HSV-1 infected in African green monkey Vero cells assessed as suppression of viral replication after 24 hrs by plaque reduction assay based phase contrast microscopy; format: functional, organism-based; settings: Human alphaherpesvirus 1, Vero
Human alphaherpesvirus 1 [2] = test: Antiviral activity against HSV-1 infected in African green monkey Vero cells assessed as suppression of viral replication at 1 uM after 24 hrs by plaque reduction assay based phase contrast microscopy; format: functional
Human alphaherpesvirus 1 [3] = test: Antiviral activity against HSV-1 infected in African green monkey Vero cells assessed as suppression of viral replication at 0.2 uM after 24 hrs by plaque reduction assay based phase contrast microscopy; format: functional
[4] = Therapeutic index, ratio of CC50 for African green monkey Vero cells to EC50 for HSV-1 infected in African green monkey Vero cells; format: toxicity; settings: read-out: Ratio CC50/EC50
Human alphaherpesvirus 1 [5] = test: Antiviral activity against HSV-1 infected in African green monkey Vero cells assessed as suppression of viral replication at 5 uM after 24 hrs by plaque reduction assay based phase contrast microscopy; format: functional
[6] = Cytotoxicity against African green monkey Vero cells incubated for 24 hrs by MTT assay; format: cell-based; settings: chlorocebus sabaeus
[7] = Inhibition of NTS in HSV-2 infected in African green monkey Vero cells assessed as suppression of viral replication by measuring viral titer after 24 hrs by plaque reduction assay based phase contrast microscopy; format: cell-based; settings: Human alphaherpesvirus 2, Vero
[8] = Inhibition of NTS in HSV-1 infected in African green monkey Vero cells assessed as suppression of viral replication by measuring viral titer after 24 hrs by plaque reduction assay based phase contrast microscopy; format: cell-based; settings: Human alphaherpesvirus 1, Vero
Human alphaherpesvirus 1 [9] = test: Antiviral activity against HSV-1 infected in African green monkey Vero cells assessed as suppression of viral replication at 1 uM after 24 hrs by plaque reduction assay based phase contrast microscopy relative to control; format: functional
[10] = Cytotoxicity against African green monkey Vero cells incubated for 72 hrs by MTS assay; format: cell-based; settings: chlorocebus sabaeus

SMILES | EC50 (Human alphaherpesvirus 1 [1]) [nM] | log(activity) (Human alphaherpesvirus 1 [2]) | log(activity) (Human alphaherpesvirus 1 [3]) | selectivity ratio [4] | log(activity) (Human alphaherpesvirus 1 [5]) | CC50 at 24 h [6] [nM] | EC50 [7] [nM] | EC50 [8] [nM] | fold change (FC) (Human alphaherpesvirus 1 [9]) | CC50 at 72 h [10] [nM]
CCCCCCCC(=O)c1cc(O)c(=O)c(O)cc1C | 440 | 0.2 | 0.13 | 185 | 4.84 | 81000 | – | – | – | –
Cc1cc(O)c(=O)c(O)cc1C(=O)c1cccc(-c2ccc3ccccc3c2)c1 | – | 3.03 | 0.14 | – | 4.11 | – | – | – | – | –
Cc1cc(O)c(=O)c(O)cc1-c1cccc(-c2ccc3ccccc3c2)c1 | – | 0.66 | 0.06 | – | 4.1 | – | – | – | – | –
Cc1cc(O)c(=O)c(O)cc1C(=O)C(C)C | 26000 | inactive | inactive | 3.6 | -0.01 | 91000 | – | – | – | –
Cc1cc(O)c(=O)c(O)cc1C(=O)c1ccco1 | – | 0.41 | -0.1 | – | 4.52 | – | – | – | – | –
C=C(C)[C@@H]1CCc2c(c(C)cc(O)c(=O)c2O)C1 | – | – | – | – | – | 100000 | 580 | 350 | – | –
Cc1cc(O)c(=O)c(O)cc1C(=O)c1ccc(-c2ccc3ccccc3c2)cc1 | – | 3.54 | 1.34 | – | 4.28 | – | – | – | – | –
CCCCCCCCCCCC(=O)c1cc(O)c(=O)c(O)cc1C | 350 | 3.23 | 0.29 | 255 | 4.84 | 95000 | – | – | >10 | –
Cc1cc(O)c(=O)c(O)cc1C(=O)c1ccc2ccccc2c1 | – | 3.82 | 0.28 | – | 4.08 | – | – | – | >10 | –
Cc1cc(O)c(=O)c(O)cc1C(=O)c1ccc2ccc3cccc4ccc1c2c34 | 60 | 5.01 | 0.93 | > 1800 | 5.76 | > 100000 | – | – | – | –
CCCCCCCCCC(=O)c1cc(O)c(=O)c(O)cc1C | 1100 | 0.07 | inactive | > 92 | 3.78 | > 100000 | – | – | – | –
Cc1cc(O)c(=O)c(O)cc1-c1ccc(-c2ccc3ccccc3c2)cc1 | – | 0.57 | -0.03 | – | 4.15 | – | – | – | – | –
Cc1cc(O)c(=O)c(O)cc1C(=O)c1cccc([N+](=O)[O-])c1 | – | 0.9 | 0.23 | – | 4.2 | – | – | – | – | –
COc1ccc(C(=O)c2cc(O)c(=O)c(O)cc2C)cc1 | – | 0.92 | 0.02 | – | 3.94 | – | – | – | – | –
Cc1cc(O)c(=O)c(O)cc1C(=O)c1cccc(-c2cccc3ccccc23)c1 | – | 3.15 | 0.15 | – | 4.6 | – | – | – | – | –
Cc1cc(O)c(=O)c(O)cc1S(=O)(=O)c1ccc(-c2ccccc2)cc1 | – | -0.34 | inactive | – | 4.44 | – | – | – | – | –

SMILES | EC50 (Human alphaherpesvirus 1 [1]) [nM] | log(activity) (Human alphaherpesvirus 1 [2]) | log(activity) (Human alphaherpesvirus 1 [3]) | selectivity ratio [4] | log(activity) (Human alphaherpesvirus 1 [5]) | CC50 at 24 h [6] [nM] | EC50 [7] [nM] | EC50 [8] [nM] | fold change (FC) (Human alphaherpesvirus 1 [9]) | CC50 at 72 h [10] [nM]
Cc1cc(O)c(=O)c(O)cc1C(=O)c1ccc(-c2ccccc2)cc1 | 170 | 4.86 | 0.43 | > 600 | 4.72 | > 100000 | 81 | 120 | – | > 100000
Cc1cc(O)c(=O)c(O)cc1C(=O)c1cccc(Br)c1 | – | 0.21 | 0.09 | – | 5.46 | – | – | – | – | –
Cc1cc(O)c(=O)c(O)cc1-c1cccc(-c2ccccc2)c1 | – | 4.26 | 0.02 | – | 4.28 | – | – | – | – | –
Cc1cc(O)c(=O)c(O)cc1-c1cccc(-c2cccc3ccccc23)c1 | – | 4 | 0.04 | – | 4.02 | – | – | – | – | –
Cc1cc(O)c(=O)c(O)cc1C(=O)c1ccc(Br)cc1 | – | 0.42 | 0.09 | – | 5.4 | – | – | – | – | –
CC(C)c1ccc(O)c(=O)c(O)c1 [BETA-THUJAPLICINOL] | – | – | – | – | – | > 100000 | 1700 | 2000 | – | –
Cc1cc(O)c(=O)c(O)cc1S(=O)(=O)c1ccccc1 | – | 0.81 | inactive | – | 0.34 | – | – | – | – | –
Cc1cc(O)c(=O)c(O)cc1C(=O)c1ccccc1O | – | 0.86 | 0.1 | – | 3.86 | – | – | – | – | –
Cc1cc(O)c(=O)c(O)cc1C(=O)c1ccc([N+](=O)[O-])cc1 | – | 0.6 | 0.03 | – | 3.91 | – | – | – | – | –
CC(C)=CCc1ccc(=O)c(O)cc1C(C)C | – | – | – | – | – | 100000 | 220 | 240 | – | –
Cc1cc(O)c(=O)c(O)cc1C(=O)c1ccccc1 | – | 0.11 | inactive | – | 4.21 | – | – | – | – | –
CC(=O)c1cc(O)c(=O)c(O)cc1C | 1200 | inactive | inactive | > 83 | 0.48 | > 100000 | – | – | – | –
CCCCCCCCCCCCCC(=O)c1cc(O)c(=O)c(O)cc1C | 140 | 1.58 | 0.36 | 631 | 4.31 | 91000 | – | – | >10 | –
Cc1cc(O)c(=O)c(O)cc1-c1ccc(-c2ccccc2)cc1 | – | 4.09 | -0.05 | – | 4.08 | > 100000 | 210 | 180 | – | > 100000
Cc1cc(O)c(=O)c(O)cc1C(=O)c1cccs1 | – | -0.06 | 0.16 | – | 0.92 | – | – | – | – | –
Cc1cc(O)c(=O)c(O)cc1C(=O)C1CCCCC1 | 630 | 0.76 | 0.62 | 116 | 5.14 | 73000 | – | – | – | –
